Measurements as given in PubChem BioAssay (NCI).
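All cell lines were grown in 96-well plates and treated with compound for 48 hours. Abbreviation: GI50, concentration required for 50% inhibition of growth. The concentration for full growth arrest is given as TGI.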

How the values were obtained:
Experiment in all cases: NCI anticancer screen, dose series, 48 h
SNB-75 CNS = test system: SNB-75 CNS
786-0 renal = test system: 786-0 renal
OVCAR-8 ovarian = test system: OVCAR-8 ovarian
NCI-H23 lung = test system: NCI-H23 lung
MALME-3M melanoma = test system: MALME-3M melanoma
NCI-H460 lung = test system: NCI-H460 lung
NCI-H226 lung = test system: NCI-H226 lung
COLO 205 colon = test system: COLO 205 colon
SF-268 CNS = test system: SF-268 CNS
EKVX NSCLC = test system: EKVX NSCLC
SK-OV-3 ovarian = test system: SK-OV-3 ovarian
T-47D breast = test system: T-47D breast
SF-295 CNS = test system: SF-295 CNS
RXF 393 renal = test system: RXF 393 renal
IGROV1 ovarian = test system: IGROV1 ovarian
HCT-116 colon = test system: HCT-116 colon
UO-31 renal = test system: UO-31 renal
ACHN renal = test system: ACHN renal
MDA-MB-435 = test system: MDA-MB-435
RPMI-8226 leukemia = test system: RPMI-8226 leukemia
TK-10 renal = test system: TK-10 renal
OVCAR-5 ovarian = test system: OVCAR-5 ovarian
K-562 leukemia = test system: K-562 leukemia
SW-620 colon = test system: SW-620 colon
U251 CNS = test system: U251 CNS
SNB-19 CNS = test system: SNB-19 CNS
NCI-H522 lung = test system: NCI-H522 lung
UACC-62 melanoma = test system: UACC-62 melanoma

## CC(C)(C)C(=O)c1c(C(F)(F)F)n([O-])c2cc(Cl)c(Cl)cc2[n+]1=O
SNB-75 CNS
  GI50: 189 nM
  TGI: 408 nM
786-0 renal
  GI50: 466 nM
  TGI: 882 nM
OVCAR-8 ovarian
  GI50: 502 nM
  TGI: 1510 nM
NCI-H23 lung
  GI50: 849 nM
  TGI: 2300 nM
MALME-3M melanoma
  GI50: 1340 nM
  TGI: 2730 nM
NCI-H460 lung
  GI50: 279 nM
  TGI: 767 nM
NCI-H226 lung
  GI50: 1600 nM
  TGI: 3120 nM
COLO 205 colon
  GI50: 683 nM
  TGI: 1690 nM
SF-268 CNS
  GI50: 457 nM
  TGI: 902 nM
EKVX NSCLC
  GI50: 1910 nM
  TGI: 3400 nM
SK-OV-3 ovarian
  GI50: 815 nM
  TGI: 2070 nM
T-47D breast
  GI50: 613 nM
  TGI: 1290 nM
SF-295 CNS
  GI50: 505 nM
  TGI: 973 nM
RXF 393 renal
  GI50: 438 nM
  TGI: 909 nM
IGROV1 ovarian
  GI50: 77 nM
  TGI: 213 nM
HCT-116 colon
  GI50: 1580 nM
  TGI: 2930 nM
UO-31 renal
  GI50: 403 nM
  TGI: 805 nM
ACHN renal
  GI50: 389 nM
  TGI: 782 nM
MDA-MB-435
  GI50: 515 nM
  TGI: 1010 nM
RPMI-8226 leukemia
  GI50: 131 nM
  TGI: 281 nM
TK-10 renal
  GI50: 842 nM
  TGI: 2260 nM
OVCAR-5 ovarian
  GI50: 642 nM
  TGI: 2190 nM
K-562 leukemia
  GI50: 582 nM
  TGI: 1150 nM
SW-620 colon
  GI50: 244 nM
  TGI: 644 nM
U251 CNS
  GI50: 492 nM
  TGI: 951 nM
SNB-19 CNS
  GI50: 609 nM
  TGI: 1280 nM
NCI-H522 lung
  GI50: 538 nM
  TGI: 1000 nM
UACC-62 melanoma
  GI50: 1460 nM
  TGI: 2770 nM
